Results: a melting point compilation (Tetko et al.; mined from patent text by program, amines drawn as free bases though some values may be those of a salt)

SMILES	melting point [°C]
COc1cc(C(=O)NS(=O)(=O)c2ccccc2C)ccc1Cn1cc(CCC(=O)N(C)C)c2ccc(CCC(=O)N(C)C)cc21	105 to 109
CC(C)(C)OC(=O)N1CCCN(c2cncc(-c3cccc([N+](=O)[O-])c3)c2)CC1	129 to 130
CC1(C)CCCN(C(=O)c2ccccc2NC(=O)CN2C(=O)c3ccccc3C2=O)C1	158
COC(=O)C1=C[C@@H](OC(C)C)[C@H](NC(C)=O)[C@@H](CCO)C1	118 to 119
COc1ccccc1N(CN1CCOC1=O)C(=O)CCl	109 to 110
Clc1ccc(-n2ncc3c2-c2ccccc2C3)cc1	128 to 129
COC(=O)C1=C(C)Nc2c(c(=O)n(C)c(=O)n2C)C1c1cccc(Cl)c1 (stereo not given)	230
COC(=O)NC1=NCC(c2ccc(OC(C)C)cc2)N1C (stereo not given)	135 to 138
OCC1OC(n2cnc3c(SCc4ccc5nc[nH]c5c4)ncnc32)C(O)C1O (stereo not given)	196 to 198
CCOc1ccc(C)c(NCc2ccccc2)c1	69 to 71
COc1ccc2c(c1)C(CC(=O)O)=C(C)C2=Cc1ccc(S(C)=O)cc1 (stereo not given)	200 to 204
Cc1nnc(-c2ccc3occ(-c4ccc5c(c4)C(C)(C)CS5=O)c3c2)o1 (stereo not given)	179 to 180
COC1CCN2C(=O)c3cccc(NC(=O)Nc4cnc(C)cn4)c3C2C1 (stereo not given)	140 to 142
CN(C)C(=O)c1cc(-c2ccc(-c3ccco3)cc2)n(-c2ccc(S(C)(=O)=O)c(F)c2)n1	167 to 168
COc1ccc(-c2nsc(C(=O)O)c2C(=O)O)cc1OC	190 to 192
COC(=O)c1ccc(COCn2cc(Cl)cnc2=O)cc1	172
CC(=Cc1ccc(N(C)C)cc1)C(=O)O	190 to 194
COc1ccc(CN2CCC(N3Cc4cc(Cl)c(S(N)(=O)=O)cc4C3=O)CC2)cc1	207 to 210
CNC(=O)Nc1ccc2c(c1)C(C)(N)c1c-2[nH]c(=O)c2nccn12 (stereo not given)	200
O=S(=O)(c1cccc2c(Cl)cccc12)N1CC2CCC(CC2)C1	105 to 106
COc1cn(-c2ccc(N3CCN(C(C)(C)C)C3=O)cc2F)nc(-c2ccnn2-c2ccccc2)c1=O	238 to 239
COc1ccc(S(=O)(=O)C(Cc2cccnc2)(CC2CCCCC2)C(=O)NO)cc1 (stereo not given)	57 to 60
CSc1cc(C)nc(SC)c1NC(=O)CCCCSc1nc2c(C)c(Cl)cc(C(C)C)c2o1	155 to 156
O=C1CC(O)CC(C=Cc2c3c(nn2-c2ccc(F)cc2)C(Cc2ccccc2)CCC3)O1 (racemic)	185 to 187

SMILES	melting point [°C]
COc1cc2ncnc(N3CCN(C(=S)NCc4ccc(N(C)C)cc4)CC3)c2cc1OC	177 to 178
O=C(Nc1ccc2c(c1)nc1n2CCC1)c1cc2cccnc2n1Cc1ccccc1	251 to 252
CCOC(=O)c1c(C)nn2c(-c3cccnc3)ccnc12	145 to 146
CCCCN=C(O)c1c(Cl)c(Sc2ccccc2)c(Sc2ccccc2)c(Cl)c1C(=O)O	215 to 216
CC1(C(=O)Nc2ccc(-n3nc(C(F)(F)F)cc3C(F)(F)F)cc2)CC1	109 to 110
CNc1nc(Nc2ccc(Cl)c(Cl)c2)ncc1NP(C)(C)=O	258
CC1CCC(N(CC2CCC(CN(C(=O)Nc3ccc(N4CCCC4)cc3)C3CCC(C)CC3)CC2)C(=O)Nc2ccc(N3CCCC3)cc2)CC1 (stereo not given)	149 to 155
COc1cc(NC(=O)C(F)(F)F)ccc1N1CCN(CCN(C(=O)C2CCCCC2)c2ccccn2)CC1	144 to 148
CCCc1cc(C(=O)O)cc(CCC)c1OCCCCCCc1cccc(OC)c1OC	61 to 65
O=C(NN1CCCCC1)c1cn(-c2ccc(Br)cc2)c(-c2ccc(Cl)cc2Cl)n1	219 to 221
Cc1ccccc1Cn1[nH]c(N)cc1=O	138
CNC(=O)c1cccc(Nc2ncnc3[nH]cc(C(=O)c4cccc5ccccc45)c23)c1	> 300
CC1(c2ccc(O)c(Br)c2)C(=O)Nc2cc(Cl)cc(Cl)c2C1=O (stereo not given)	228 to 229
COC(=O)[C@H](Cc1ccc(OCC2CCCN(C(=O)OC(C)(C)C)C2)cc1)NC(=O)[C@@H]1CCCN1S(=O)(=O)c1ccc(C)cc1 (stereo not given in full)	82 to 84
CS(=O)(=O)c1ccc(CN2C(=O)C3(COc4cc5c(cc43)OCO5)c3ccccc32)o1 (stereo not given)	177 to 179
O=C1c2ccccc2COc2ccc(Br)cc21	132 to 134
CC(=O)N1[C@@H](C(=O)O)C(C)(C)S[C@H]1c1ccccc1	216 to 217
Cc1ccc([N+](=O)[O-])c(C)c1[N+](=O)[O-]	81 to 83
O=C(O)CCCC/C=C(\c1ccc(-c2nc(C(=O)N[C@@H]3C[C@H]3c3ccccc3)co2)cc1)c1cccnc1	78 to 87
CS(=O)(=O)c1ccc(OC2SCC(O)C(O)C2O)cc1 (stereo not given)	180
Cc1nn(-c2ccc(F)cc2)cc1C(=O)N(CCCC(=O)O)c1ccc(OCC(C)(C)C)c(C#N)c1	178 to 180
C=CCOCN1C(C)=C(C(=O)OCC)C(c2cccc([N+](=O)[O-])c2)C(C(=O)OCC)=C1C	111 to 112
O=S(=O)(Cc1noc(-c2ccccc2)n1)c1ccc(CCNCC(O)c2ccc(OC(F)(F)F)cc2)cc1 (stereo not given)	125 to 127
CCOC(=O)c1cc2ccc(Cl)cc2n1C	75.5 to 76.5

SMILES	melting point [°C]
O=C1CCC(N2Cc3c(OCc4cc(Cl)cc(Cl)c4)cccc3C2=O)C(=O)N1 (stereo not given)	271 to 273
O=C(Cl)Cc1ccc(-c2ccc(F)cc2F)c(F)c1	70 to 73
CNC(=O)ON=C1SCS(=O)CS1 (stereo not given)	175 to 177
O=C(O)CCCC(=O)c1cc2c(=O)c3ccccc3ccc2s1	149 to 151
Cn1c(C2CC2)nc2c(O)c(C(=O)[C@H](O)[C@@H](O)c3ccccc3)ccc21	156
CCC(CC)(CC(=O)O)C(=O)O	106 to 109
CCCCn1c(=O)cnn(-c2ccc(N3CCN(c4ccc(O)cc4)CC3)cc2)c1=O	202
CC(C)(C)c1cc(CCc2nnco2)cc(C(C)(C)C)c1O	100 to 101
CC(Oc1ccc(S(C)(=O)=O)cc1)c1ccnc2ncnn12 (stereo not given)	163 to 164
CN1C(=O)C2(COc3cc4c(cc32)OCCO4)c2c(NC(=O)C3CCC3)cccc21 (stereo not given)	234 to 236
O=C1c2ccccc2C(O)N1CCCCCCl (stereo not given)	77 to 79
COCc1cc(Oc2c(Cl)cc(C(F)(F)F)cc2Cl)n[nH]1	141 to 143
COc1ccc(C2=NOC(C)(c3nnc(S)n3N)C2)cc1OC1CCCC1 (stereo not given)	228 to 229
O=[N+]([O-])c1ccc(Nc2c(F)c(F)nc(F)c2F)c(C(F)(F)F)c1	104 to 105
CCCCc1nc2c(N)nc3cc(-c4ccccc4OCCC)ccc3c2n1CC(C)C	174 to 176
CC(C)c1cc2nc(N)sc2cc1SC1=C(O)C[C@@](CCc2ccccc2)(C(C)C)OC1=O	197 to 199
CC(=O)NC[C@H]1CN(c2ccc(N3CCC(F)(CCl)CC3)c(F)c2)C(=O)O1	158 to 160
CCCCN(CCCC)CCCCCCOc1ccc([C@H]2c3ccc(OCc4ccccc4)cc3OC[C@H]2c2ccccc2)cc1 (racemic)	72 to 73.5
N#CC1NC(CO)C(O)C(O)C1O (stereo not given)	143
Cc1c(-c2ccco2)c(N2CC[C@H](N(C)C)C2)c2oc(C3CC3)nc2c1C#N	158 to 159
O=S1(=O)NCCNc2ccc(Oc3ccccc3)cc21	146 to 149
CCCCOCCOc1ccc(-c2ccc(N3CCCC(C)C3)c(C=CC(=O)O)c2)cc1 (stereo not given)	125 to 127
Clc1ncc(OCc2ccccc2)c2ccccc12	97 to 98
CCN(C)c1nc2sc3c(NCCCN4CCCC4=O)ncnc3c2c2c1CCC(C)(C)C2	166 to 167

SMILES	melting point [°C]
C[C@@H](NC(=O)c1c[nH]c2ncc(-c3nn(C)c4cc(F)cc(F)c34)nc12)C(=O)N1CC(C#N)C1	235 to 265
CC(C)(C)OC(=O)c1ncn2c1CN=C(c1ccccc1)c1cc(Br)ccc1-2	222 to 223
CCCc1c(OCCCCCOc2ccc(C(=O)Cc3ccccc3C(=O)O)cc2CCC(=O)O)ccc2c1OCCC2=O	178 to 182
CC1=C(N)C(C)C2CC(C)(CC3=CCN(c4ccc(-n5ccnc5)cc4)CC3)OC2=C1C (stereo not given)	161 to 163
COC(=O)C(O)C(NC(=O)OC(C)(C)C)C1CC1 (stereo not given)	93
CCOC(=O)c1cn(-c2ccccc2)nc1NC=O	135 to 136
O=c1nc2ccccc2c2cc(CO)[nH]n12	225 to 230
CCOc1cc(NC(C)=O)c([N+](=O)[O-])cc1C(=O)OC	110
O=c1[nH]c2ncccc2c(=O)n1-c1ccccc1	304
CCOC(=O)c1nc(Cc2ccccc2[N+](=O)[O-])n[nH]1	135 to 140
CNC(=O)N1N=C(c2ccc([N+](=O)[O-])c(C)c2)c2cc3c(cc2CC1C)OCO3 (stereo not given)	221 to 229
COc1cccc(N(CCN2CCC(C(=O)c3ccc(F)cc3)CC2)C(=O)c2cccc(N)c2)c1	141 to 142
Cc1c(NC(=O)c2ccc(NC(=O)c3ccccc3)cc2)ccc2cc(CN3CCCC3)cnc12	242
CC1(C)OOC23CCCCC2CC(=O)OC3O1 (stereo not given)	106 to 107
CCOC(=O)C1=C(C)NC(COC(C)=O)=C(C(=O)OCC)C1c1ccccc1[N+](=O)[O-] (stereo not given)	89 to 90
COc1ccccc1N1CCN(CCCNC(=O)c2cccc3c(=O)c(C)c(C4(c5ccccc5)CCCC4)oc23)CC1	171 to 172
O=C(CI)N1CCN(C(=O)CI)CC1	105 to 109
C=CCCC[C@H]1CC[C@H](c2ccc(C(C)=O)cc2)CC1	47.6
O=C1CCNC(=O)C1C(=O)c1ccc(Cl)c(Cl)c1 (stereo not given)	172 to 174
Clc1cc(Cl)cc(N=Cc2ccccc2)c1	52 to 53
CN(CCCCNC(=NCCCOc1cccc(CN2CCCCC2)c1)NC#N)CCN(Cc1ccc(F)cc1)c1ccccn1	84 to 86
Cc1onc(-c2ccccc2)c1-c1cc(F)c(S(C)(=O)=O)c(F)c1	140 to 143
COC(=O)C(C(C)C)N(C)S(=O)(=O)c1ccc(-c2ccc([N+](=O)[O-])cc2)cc1 (stereo not given)	117 to 118
